Data on 16 compounds can be found in ChEMBL document CHEMBL1131087, “New cyclooxygenase-2/5-lipoxygenase inhibitors. 3. 7-tert-butyl-2, 3-dihydro-3,3-dimethylbenzofuran derivatives as gastrointestinal safe antiinflammatory and analgesic agents: variations at the 5 position” (J Med Chem, 1998).

The test system of assay [1] is Rattus norvegicus. In words: Comparative activity versus Dihydrodimethylbenzofurans in the CPE (Carrageenan paw edema) assay; (-) indicates the compound is inactive. The assay is classed as functional, organism-based.
The target of assay [2] is Prostaglandin G/H synthase 1 (Homo sapiens, UniProt P23219).
Description: Inhibitory activity against prostaglandin G/H synthase 1 (COX-1)
The target in assay [3] is T1, Prostaglandin G/H synthase 2 (Homo sapiens, UniProt P35354).
T1 sequence (P35354 whole entry): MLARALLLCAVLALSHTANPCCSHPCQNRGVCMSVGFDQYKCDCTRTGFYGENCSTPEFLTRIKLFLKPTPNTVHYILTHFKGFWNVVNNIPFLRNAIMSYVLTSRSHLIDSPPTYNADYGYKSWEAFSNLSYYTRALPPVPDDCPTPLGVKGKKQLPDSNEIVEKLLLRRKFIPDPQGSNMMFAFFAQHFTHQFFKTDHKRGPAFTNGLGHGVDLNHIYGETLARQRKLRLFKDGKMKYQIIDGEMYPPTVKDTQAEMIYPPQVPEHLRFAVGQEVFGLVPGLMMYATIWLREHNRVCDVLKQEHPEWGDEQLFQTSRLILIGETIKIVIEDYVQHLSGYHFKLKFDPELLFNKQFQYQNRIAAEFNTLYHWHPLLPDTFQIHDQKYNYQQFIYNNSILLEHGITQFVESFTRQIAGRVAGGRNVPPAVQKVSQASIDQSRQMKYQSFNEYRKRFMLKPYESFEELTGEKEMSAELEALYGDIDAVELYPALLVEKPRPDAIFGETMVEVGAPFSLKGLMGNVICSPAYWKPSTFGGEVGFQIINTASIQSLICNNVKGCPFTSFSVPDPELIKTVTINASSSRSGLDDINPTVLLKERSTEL
Description: Inhibitory activity against prostaglandin G/H synthase 2 (COX-2)

The test system of assay [4] is Rattus norvegicus. Description: Inhibition of paw swelling relative to the tebufelone in rat. Value was reported as Carrageenan paw edema index. Type of assay: functional.
The species entered for assay [5] is Rattus norvegicus. In words: Compound was tested for its analgesic activity in phenylquinone-induced abdominal constriction assay(PAC). The assay is classed as functional. Conditions: Abdomen.
For assay [6], the target named is T2, Polyunsaturated fatty acid 5-lipoxygenase (Homo sapiens, UniProt P09917).
T2 sequence (P09917 whole entry): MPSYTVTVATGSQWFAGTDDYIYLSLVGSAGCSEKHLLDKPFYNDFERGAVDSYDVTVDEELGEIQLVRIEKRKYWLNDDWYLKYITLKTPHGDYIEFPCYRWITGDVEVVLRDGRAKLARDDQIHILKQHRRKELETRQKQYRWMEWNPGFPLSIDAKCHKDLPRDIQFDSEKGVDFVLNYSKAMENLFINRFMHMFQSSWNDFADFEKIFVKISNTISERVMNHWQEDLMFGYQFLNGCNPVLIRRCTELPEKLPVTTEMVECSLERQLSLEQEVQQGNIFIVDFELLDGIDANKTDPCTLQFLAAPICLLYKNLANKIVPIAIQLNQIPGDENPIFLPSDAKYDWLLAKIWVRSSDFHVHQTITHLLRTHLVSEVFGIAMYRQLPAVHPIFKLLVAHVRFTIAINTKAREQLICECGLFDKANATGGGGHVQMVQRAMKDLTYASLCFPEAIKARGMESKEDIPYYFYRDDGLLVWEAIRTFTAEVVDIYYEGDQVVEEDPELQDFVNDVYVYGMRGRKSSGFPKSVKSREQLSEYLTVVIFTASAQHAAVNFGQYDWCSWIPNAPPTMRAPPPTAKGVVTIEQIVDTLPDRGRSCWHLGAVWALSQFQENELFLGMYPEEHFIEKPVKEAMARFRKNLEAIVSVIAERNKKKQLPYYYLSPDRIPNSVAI
Description: Inhibition of 5-Lipoxygenase (5-LOX).

For assay [7], the system named is Rattus norvegicus. In words: Analgesic activity (50 mg/kg, sc)in phenylquinone-induced abdominal constriction assay(PAC). Type of assay: functional, Abdomen.
A short description of assay [8]: Comparative activity versus Dihydrodimethylbenzofurans in the CPE (Carrageenan paw edema) assay; -, inactive. Conditions: Rattus norvegicus.
The test system of assay [9] is Rattus norvegicus. Description: Compound was tested at a dose of 50 mg/kg for its antiinflammatory activity in carrageenan paw edema (CPE) assay.
For assay [10], the system named is Rattus norvegicus. Description: Comparative activity versus Dihydrodimethylbenzofurans in the CPE (Carrageenan paw edema) assay; -, inactive. The assay is classed as functional, organism-based.
For assay [11], the species on record is Rattus norvegicus. Description: Comparative activity versus Dihydrodimethylbenzofurans in the CPE assay; -, indicates inactive. Type of assay: functional, organism-based.

Activity calls are given as the source filed them. The rule behind the calls is not given here.

Prostaglandin G/H synthase 1, sequence (P23219 whole entry): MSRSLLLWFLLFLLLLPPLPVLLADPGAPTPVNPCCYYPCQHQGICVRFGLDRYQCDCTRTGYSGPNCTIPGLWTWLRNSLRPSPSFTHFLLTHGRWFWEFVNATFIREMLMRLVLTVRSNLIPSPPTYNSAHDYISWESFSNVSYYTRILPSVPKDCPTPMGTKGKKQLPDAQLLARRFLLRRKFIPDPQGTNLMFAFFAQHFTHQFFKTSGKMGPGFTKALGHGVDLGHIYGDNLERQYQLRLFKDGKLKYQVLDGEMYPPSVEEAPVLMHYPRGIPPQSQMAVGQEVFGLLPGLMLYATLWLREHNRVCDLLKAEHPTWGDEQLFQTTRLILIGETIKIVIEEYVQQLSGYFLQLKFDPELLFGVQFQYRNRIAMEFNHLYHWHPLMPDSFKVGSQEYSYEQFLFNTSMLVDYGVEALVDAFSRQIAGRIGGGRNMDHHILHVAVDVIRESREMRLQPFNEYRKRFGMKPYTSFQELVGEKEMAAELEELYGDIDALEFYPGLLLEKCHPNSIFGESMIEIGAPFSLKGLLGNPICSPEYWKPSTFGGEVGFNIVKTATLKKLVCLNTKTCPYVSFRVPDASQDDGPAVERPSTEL

Regarding `CC(C)(C)c1cc(C(=O)O)cc(C(C)(C)C)c1O`, the outcome with Rattus norvegicus [1] was inactive.
Turning to `CC(C)(C)c1cc(/C=C2/SC(N)=NC2=O)cc2c1OCC2(C)C`, the IC50 in [2] worked out at 5 µM; in assay [3] it was 3 µM. For the same compound, the result in the assay on Rattus norvegicus [1] was inactive. For the same compound, the CPE index in the assay on Rattus norvegicus [4] is on record as 0.07.
`CN(C(=O)c1cc(C(C)(C)C)c2c(c1)C(C)(C)CO2)C1CC1`: the values for the IC50 in [2], in [3] and in [6] were 5 µM, 1 µM and 12 µM, respectively. This compound also had an ED50 in the assay listed under Rattus norvegicus [5] of 10 mg/kg. This compound also displayed a CPE index in the assay on Rattus norvegicus [4] of 1.82.
For `CC(C)(C)c1cc(/C=C\c2ccccn2)cc2c1OCC2(C)C`, the result in the assay on Rattus norvegicus [1] was inactive. In the assay on Rattus norvegicus [4], this compound gave a CPE index of 0.5.
Regarding `Cc1cc(/C=C\c2cc(C(C)(C)C)c3c(c2)C(C)(C)CO3)on1`, in the assay with Rattus norvegicus [1], the outcome was inactive. In addition, in the assay with Rattus norvegicus [4], the CPE index is on record as 0.
Regarding `Cc1nc(-c2cc(C(C)(C)C)c(O)c(C(C)(C)C)c2)no1`, the outcome in the assay on Rattus norvegicus [1] was inactive.
Regarding `CC(C)(C)c1cc(C(N)=O)cc(C(C)(C)C)c1O`, the result in the assay with Rattus norvegicus [1] was inactive.
Turning to `CCNC(=O)c1cc(C(C)(C)C)c2c(c1)C(C)(C)CO2`, the IC50 in [2] was determined as 20 µM; in assay [3], 6 µM. Also, the Inhibition in the assay with Rattus norvegicus [7] is 56%. This compound also returned a CPE index in the assay with Rattus norvegicus [4] of 0.88.
Turning to `CC(C)(C)c1cc(C(N)=O)cc2c1OCC2(C)C`, the outcome in assay [8] was inactive. The CPE index in the assay on Rattus norvegicus [4] is listed as 0.07.
`CCN(C)C(=O)c1cc(C(C)(C)C)c2c(c1)C(C)(C)CO2`: the figures for the IC50 in assay [2], in assay [3] and in assay [6] were 2.5 µM, 4.5 µM and 22 µM, respectively. In the assay filed under Rattus norvegicus [5], this compound came in with an ED50 of 19 mg/kg. This compound also registered a CPE index in the assay on Rattus norvegicus [4] of 0.86.
As for `C#CCCCC(=O)c1cc(C(C)(C)C)c(O)c(C(C)(C)C)c1` [TEBUFELONE], in the assay filed under Rattus norvegicus [5], the ED50 worked out at 3.7 mg/kg. Further, 50 mg/kg produced 51.1% inhibition in vivo in the assay with Rattus norvegicus [9].
As for `CC(=O)Nc1cc(C(C)(C)C)c(O)c(C(C)(C)C)c1`, in the assay on Rattus norvegicus [1], the result was inactive.
For `CC(C)(C)c1cc(-c2cn3c(n2)S(=O)(=O)C=C3)cc(C(C)(C)C)c1O`, the result in the assay on Rattus norvegicus [1] was inactive.
For the compound `CN(C)C(=O)c1cc(C(C)(C)C)c2c(c1)C(C)(C)CO2`, in the assay with Rattus norvegicus [10], the outcome was inactive. In the assay on Rattus norvegicus [4], this compound yielded a CPE index of 0.36.
`COc1ccc2cc([C@H](C)C(=O)O)ccc2c1` [NAPROXEN] came in with an ED50 in the assay listed under Rattus norvegicus [5] of 1.3 mg/kg. The compound also displayed an Inhibition in the assay with Rattus norvegicus [7] of 54%. In addition, in the assay on Rattus norvegicus [4], the CPE index turned out to be 1.06.
For `CC(C)(C)c1cc(-c2cn3c(n2)S(=O)(=O)C=C3)cc2c1OCC2(C)C`, in the assay listed under Rattus norvegicus [11], the outcome was inactive. In the assay with Rattus norvegicus [4], the CPE index is given as 0.19.
